According to US10947271B2, “Antibacterial agents” (THE UNIVERSITY OF QUEENSLAND, priority 2014, dated 2021):

What was measured:
Type in all cases: cell-based
Settings in all cases: 24 h incubation, visual reading
[1] = test system: Streptococcus pneumoniae MDR ATCC 700677; experiment: MIC assay, S. pneumoniae MDR ATCC 700677
Summary of the method: (§1)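 Twofold broth microdilution in Mueller Hinton broth; compounds tested from 8 μg/ml to 0.003 μg/ml. Mid-log cultures were inoculated at 5×10e5 CFU/mL and incubated 24 h at 37° C. MIC was the lowest concentration with no visible growth.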

[2] = test system: Enterococcus faecium MDR Van A ATCC 51559; experiment: MIC assay, E. faecium MDR Van A ATCC 51559
Summary of the method: as §1

[3] = test system: Staphylococcus aureus MRSA ATCC 43300; experiment: MIC assay, S. aureus MRSA ATCC 43300
Summary of the method: as §1

| SMILES | Minimum Inhibitory Concentration (MIC) S. pneumoniae ATCC 700677 [1] | Minimum Inhibitory Concentration (MIC) E. faecium ATCC51559 [2] | Minimum Inhibitory Concentration (MIC) Staph. aureus ATCC43300 [3] |
| --- | --- | --- | --- |
| CNC(=O)C(CCCCNC(=O)C1NC(=O)C2NC(=O)C(NC(=O)C3NC(=O)C(CC(N)=O)NC(=O)C(NC(=O)C(CC(C)C)NC)C(O)c4ccc(c(Cl)c4)Oc4cc3cc(c4OC3OC(CO)C(O)C(O)C3OC3CC(C)(N)C(O)C(C)O3)Oc3ccc(cc3Cl)C2O)c2ccc(O)c(c2)-c2c(O)cc(O)cc21)NC(=O)C(CCCCN)NC(=O)C(CCCCN)NC(=O)C(CCCCN)NC(=O)C(CCCCNC(=O)c1ccc(Oc2ccccc2)cc1)NC(=O)c1ccc(Oc2ccccc2)cc1 (stereo not drawn) [MCC_000316] | xxxxx (xxxxx = <0.01) | xxxx (xxxx = 0.01-<0.1) | xxxxx (xxxxx = <0.01) |
| CCCCCCC(CCCC)C(=O)NCCCCC(NC(=O)C(CCCC)CCCCCC)C(=O)NC(CCCCN)C(=O)NC(CCCCNC(=O)C1NC(=O)C2NC(=O)C(NC(=O)C3NC(=O)C(CC(N)=O)NC(=O)C(NC(=O)C(CC(C)C)NC)C(O)c4ccc(c(Cl)c4)Oc4cc3cc(c4OC3OC(CO)C(O)C(O)C3OC3CC(C)(N)C(O)C(C)O3)Oc3ccc(cc3Cl)C2O)c2ccc(O)c(c2)-c2c(O)cc(O)cc21)C(=O)NC (stereo not drawn) [MCC_000497] | xxx (xxx = 0.1-<1) | xxx (xxx = 0.1-<1) | xxx (xxx = 0.1-<1) |
| CCCCCCCCCCC(=O)N[C@@H](CCCCN)C(=O)N[C@@H](CCCCNC(=O)[C@H]1NC(=O)[C@H]2NC(=O)[C@H](NC(=O)[C@@H]3NC(=O)[C@H](CC(N)=O)NC(=O)[C@H](NC(=O)[C@@H](CC(C)C)NC)[C@H](O)c4ccc(c(Cl)c4)Oc4cc3cc(c4O[C@@H]3O[C@H](CO)[C@@H](O)[C@H](O)[C@H]3O[C@H]3C[C@](C)(N)[C@H](O)[C@H](C)O3)Oc3ccc(cc3Cl)[C@H]2O)c2ccc(O)c(c2)-c2c(O)cc(O)cc21)C(N)=O [MCC_005062] | xxxx (xxxx = 0.01-<0.1) | x (x = >4) | xxxx (xxxx = 0.01-<0.1) |
| CCCCCOc1ccc(C(=O)NC(CCCCN)C(=O)NC(CCCCN)C(=O)NCCCNC(=O)C2NC(=O)C3NC(=O)C(NC(=O)C4NC(=O)C(CC(N)=O)NC(=O)C(NC(=O)C(CC(C)C)NC)C(O)c5ccc(c(Cl)c5)Oc5cc4cc(c5OC4OC(CO)C(O)C(O)C4OC4CC(C)(N)C(O)C(C)O4)Oc4ccc(cc4Cl)C3O)c3ccc(O)c(c3)-c3c(O)cc(O)cc32)cc1 (stereo not drawn) [MCC_005361] | xxxx (xxxx = 0.01-<0.1) | xx (xx = 1-4) | xxxx (xxxx = 0.01-<0.1) |
| CCCCCCCOc1ccc(C(=O)NC(CCCCN)C(=O)NC(CCCCN)C(=O)NC(CCCCNC(=O)C2NC(=O)C3NC(=O)C(NC(=O)C4NC(=O)C(CC(N)=O)NC(=O)C(NC(=O)C(CC(C)C)NC)C(O)c5ccc(c(Cl)c5)Oc5cc4cc(c5OC4OC(CO)C(O)C(O)C4OC4CC(C)(N)C(O)C(C)O4)Oc4ccc(cc4Cl)C3O)c3ccc(O)c(c3)-c3c(O)cc(O)cc32)C(=O)NC)cc1 (stereo not drawn) [MCC_000503] | xxxxx (xxxxx = <0.01) | xx (xx = 1-4) | xxxxx (xxxxx = <0.01) |
| CCCCCCCC(=O)N[C@@H](CCCCN)C(=O)N[C@@H](CCCCNC(=O)[C@H]1NC(=O)[C@H]2NC(=O)[C@H](NC(=O)[C@@H]3NC(=O)[C@H](CC(N)=O)NC(=O)[C@H](NC(=O)[C@@H](CC(C)C)NC)[C@H](O)c4ccc(c(Cl)c4)Oc4cc3cc(c4O[C@@H]3O[C@H](CO)[C@@H](O)[C@H](O)[C@H]3O[C@H]3C[C@](C)(N)[C@H](O)[C@H](C)O3)Oc3ccc(cc3Cl)[C@H]2O)c2ccc(O)c(c2)-c2c(O)cc(O)cc21)C(=O)O [MCC_005222] | xx (xx = 1-4) | x (x = >4) | xx (xx = 1-4) |
| CNC(=O)C(CCCCNC(=O)C1NC(=O)C2NC(=O)C(NC(=O)C3NC(=O)C(CC(N)=O)NC(=O)C(NC(=O)C(CC(C)C)NC)C(O)c4ccc(c(Cl)c4)Oc4cc3cc(c4OC3OC(CO)C(O)C(O)C3OC3CC(C)(N)C(O)C(C)O3)Oc3ccc(cc3Cl)C2O)c2ccc(O)c(c2)-c2c(O)cc(O)cc21)NC(=O)C(CCCCN)NC(=O)C(CCCCN)NC(=O)CCCCCCCCCc1ccccc1 (stereo not drawn) [MCC_000510] | xxxxxx | xx (xx = 1-4) | xxxx (xxxx = 0.01-<0.1) |
| CCCCCCCC(=O)N[C@@H](CCCCN)C(=O)N[C@@H](CCCCN)C(=O)NCCNC(=O)[C@H]1NC(=O)[C@H]2NC(=O)[C@H](NC(=O)[C@@H]3NC(=O)[C@H](CC(N)=O)NC(=O)[C@H](NC(=O)[C@@H](CC(C)C)NC)[C@H](O)c4ccc(c(Cl)c4)Oc4cc3cc(c4O[C@@H]3O[C@H](CO)[C@@H](O)[C@H](O)[C@H]3O[C@H]3C[C@](C)(N)[C@H](O)[C@H](C)O3)Oc3ccc(cc3Cl)[C@H]2O)c2ccc(O)c(c2)-c2c(O)cc(O)cc21 [MCC_005164] | xxx (xxx = 0.1-<1) | x (x = >4) | xxx (xxx = 0.1-<1) |
| CNC(=O)[C@H](CCCCNC(=O)[C@H]1NC(=O)[C@H]2NC(=O)[C@H](NC(=O)[C@@H]3NC(=O)[C@H](CC(N)=O)NC(=O)[C@H](NC(=O)[C@@H](CC(C)C)NC)[C@H](O)c4ccc(c(Cl)c4)Oc4cc3cc(c4O[C@@H]3O[C@H](CO)[C@@H](O)[C@H](O)[C@H]3O[C@H]3C[C@](C)(N)[C@H](O)[C@H](C)O3)Oc3ccc(cc3Cl)[C@H]2O)c2ccc(O)c(c2)-c2c(O)cc(O)cc21)NC(=O)[C@@H](CCCCN)NC(=O)[C@@H](CCCCN)NC(=O)[C@H](CCCCNC(=O)c1ccc(Oc2ccccc2)cc1)NC(=O)c1ccc(Oc2ccccc2)cc1 [MCC_000766] | xxxxx (xxxxx = <0.01) | xx (xx = 1-4) | xxxxx (xxxxx = <0.01) |
| CNC(CC(C)C)C(=O)NC1C(=O)NC(CC(N)=O)C(=O)NC2C(=O)NC3C(=O)NC(C(=O)NC(C(=O)NCCCNC(=O)C(CCCCN)NC(=O)c4ccc(C(F)(F)F)cc4)c4cc(O)cc(O)c4-c4cc3ccc4O)C(O)c3ccc(c(Cl)c3)Oc3cc2cc(c3OC2OC(CO)C(O)C(O)C2OC2CC(C)(N)C(O)C(C)O2)Oc2ccc(cc2Cl)C1O (stereo not drawn) [MCC_007408] | xxx (xxx = 0.1-<1) | x (x = >4) | xxxx (xxxx = 0.01-<0.1) |
| CCCCCCCCCCCCC(=O)NC(CCCCN)C(=O)NC(CCCCN)C(=O)NC(CCCCNC(=O)C1NC(=O)C2NC(=O)C(NC(=O)C3NC(=O)C(CC(N)=O)NC(=O)C(NC(=O)C(CC(C)C)NC)C(O)c4ccc(c(Cl)c4)Oc4cc3cc(c4OC3OC(CO)C(O)C(O)C3OC3CC(C)(N)C(O)C(C)O3)Oc3ccc(cc3Cl)C2O)c2ccc(O)c(c2)-c2c(O)cc(O)cc21)C(=O)NC (stereo not drawn) [MCC_000494] | xxxxx (xxxxx = <0.01) | xx (xx = 1-4) | xxxxx (xxxxx = <0.01) |
